Measured values published in patent publication US9649295B2, “Chemical inhibitors of soluble adenylyl cyclase (sAC)” (Cornell Research Foundation, Inc., priority 2004, dated 2017).

Key:
[1] = test system: CREB phosphorylation in isolated nuclei; assay: CREB phosphorylation in isolated HeLa nuclei (P2), Western analysis; type: biochemical; details: for relative intensity of phospho-CREB band normalized to basal: basal 1 U, 1 mM 8-Br cAMP, 40 mM bicarbonate alone or plus 10 μM H-89 or 1 mM 8-Br-RpcAMPs
Procedure: The resuspended pellet and 60% OptiPrep iodixanol were mixed (30% OptiPrep final) and centrifuged at 10,000 g for 20 min. The supernatant was removed and the nuclei-enriched pellet (P2) was resuspended in TM-2 buffer without detergent.
Reactions were stopped by the addition of 20 μl of SDS sample buffer (CREB phosphorylation) or by being placed into a 100° C. heat block for 3 min (adenylyl cyclase).
(§1) For whole cell and isolated nuclei CREB phosphorylation assays, equal cell or nuclear equivalents were separated under reducing conditions using a 10% SDS-PAGE, transferred to a PVDF membrane, and probed for CREB (rabbit polyclonal antiserum; Chemicon, Temecula, Calif.) and phosphorylated CREB (rabbit polyclonal antiserum; Upstate Biotechnology, Temecula, Calif.). HRP-conjugated secondary antibodies were used, and bands were visualized using ECL. Image analysis software (model Fluorchem 8800; Alpha Innotech, San Leandro, Calif.) was used to quantitate Western results. Intensities of phospho-CREB bands were normalized to total CREB.

[2] = test system: CREB phosphorylation; assay: CREB phosphorylation in COS7 cells; type: cell-based; details: 10 μM H89 pretreatment 10 min
Procedure: All cell lines were grown in DME (44 mM sodium bicarbonate) supplemented with 10% FBS. Where indicated, cells were transfected using Lipofectamine 2000 (Invitrogen, Carlsbad, Calif.) as per the manufacturer's instructions. Cells were incubated with DNA for 5 h in OPTI-MEM (Invitrogen), and then switched to normal media. Bicarbonate starvation was conducted by changing media to bicarbonate-free DME (44 mM Hepes) supplemented with 10% FBS for at least 1 h at 37° C. under ambient air conditions. Bicarbonate stimulation consisted of returning cells to normal bicarbonate-containing media and placing them in a 5% CO2 incubator. For PGE2 or forskolin stimulation, cells were grown in normal media under 5% CO2. Stimulation was accomplished by replacing media with normal media containing 1 μM PGE2 or 10 μM forskolin. […]
For phospho-CREB immunolocalization, cells or nuclei were fixed in 4% PFA for 30 min, permeabilized in 0.1% Triton X-100 for 15 min, blocked for at least 1 h in 3% BSA, and immunostained using phospho-CREB polyclonal antisera (1:500; Cell Signaling Technologies) overnight at 4° C. […] Fluorescent images were recorded by a digital camera (Hamamatsu, Bridgewater, N.J.) connected to an inverted epifluorescent microscope (Nikon, Melville, N.Y.). […] Phospho-CREB-positive nuclei were quantified in multiple fields from each stained slide by a blinded experimenter. […]

[3] = test system: CREB phosphorylation in isolated nuclei; assay: phospho-CREB immunocytochemistry of isolated nuclei; type: biochemical; details: 10 min; 40 mM sodium bicarbonate, 1 mM 8-Br cAMP, 10 μM forskolin
Procedure: Cell Signaling Technologies) overnight at 4° C. Staining was visualized by incubation with goat anti-rabbit Alexa Fluor 488 (Molecular Probes) for 1 h at room temperature, treated with DAPI for 5 min, and washed and mounted with gelvatol/DABCO (Sigma-Aldrich). Fluorescent images were recorded by a digital camera (Hamamatsu, Bridgewater, N.J.) connected to an inverted epifluorescent microscope (Nikon, Melville, N.Y.). Images were taken at the same exposure time and gain, and all photographic manipulations were performed equally. Phospho-CREB-positive nuclei were quantified in multiple fields from each stained slide by a blinded experimenter. […] Nuclei were also treated with DAPI to differentiate intact nuclei from membrane ghosts. DAPI-positive nuclei were scored for phosho-CREB immunofluorescence. Nuclei with detectable staining (FIG. 6A, NaHCO3) were considered positive for CREB phosphorylation, whereas nuclei with no detectable staining (FIG. 6A, Basal) were counted as negative. Multiple microscopic fields were photographed for each condition, and data was combined from three to five separate experiments.

[4] = test system: CREB phosphorylation; assay: time course of CREB phosphorylation in Huh7 cells; type: cell-based, human; details: 44 mM bicarbonate DME, 1 μM PGE2
Procedure: FIGS. 2A-B show the time course of CREB phosphorylation by sAC and tmAC. Huh7 cells were starved for 1 h for bicarbonate and CO2 and incubated in 44 mM of normal, bicarbonate-containing DME in 5% CO2 for the time indicated (FIG. 2A) or kept in normal media and treated with 1 μM PGE2 for the time indicated (FIG. 2B). Top panels in FIGS. 2A-B show Western blots using anti-phospho-CREB antisera with phosphorylated CREB (P-CREB) protein indicated; the bottom panels show Western blot using CREB-specific antisera with total CREB (CREB) protein indicated. Shown below the Western blots in FIGS. 2A-B are graphical representations of the intensities of phospho-CREB relative to CREB normalized to the 0 min time point (first lane).
All cell lines were grown in DME (44 mM sodium bicarbonate) supplemented with 10% FBS. […]
as §1, with “HRP-conjugated secondary antibodies were used, and bands were visualized using ECL.” left out, “Intensities of phospho-CREB bands were normalized to total CREB.” left out

[5] = biological target: catalytic portion of the sAC-like adenylyl cyclase from Candida albicans (fragment JR3) (Candida albicans, UniProt A0A1D8PR83); assay: biochemical; details: read-out: EC50 for stimulation of adenylyl cyclase activity of JR3
Chain of catalytic portion of the sAC-like adenylyl cyclase from Candida albicans (fragment JR3) (A0A1D8PR83 entry or part of it): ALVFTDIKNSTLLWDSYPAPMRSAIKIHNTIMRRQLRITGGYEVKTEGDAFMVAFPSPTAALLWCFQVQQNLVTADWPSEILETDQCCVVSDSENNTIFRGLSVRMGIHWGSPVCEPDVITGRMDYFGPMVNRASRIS
Source text: . FIG. 17A illustrates the bicarbonate dependence of the JR3 fragment; […];

SMILES	relative intensity of phospho-CREB band normalized to basal [1] [U]	reduction of CREB phosphorylation induced by bicarbonate ([1]; isolated nuclei, 40 mM bicarbonate) [%]	effect on forskolin- or bicarbonate-induced phospho-CREB immunostaining [2]	percentage of phospho-CREB-positive nuclei relative to basal [3]	increase in CREB phosphorylation ([1]; isolated nuclei, Western) [fold]	time to detectable increase in phospho-CREB [4] [min]	EC50 [5] [µM]
O=S(=O)(NCCNC/C=C/c1ccc(Br)cc1)c1cccc2cnccc12 [H89]	13	50	inhibited	–	–	–	–
O=C([O-])O.[Na+] [bicarbonate, sodium bicarbonate]	27	–	–	at least a twofold rise	27	≤ 2	~200
